Test results from PMC12040169 (PLOS Biology, 2025).

Experiment: in vitro
Settings: human, hela cells, % viability

Compound | viability at 28.5 h, 10 µM [%]
Cc1c(Cl)cccc1S(=O)(=O)Nc1c(C(=O)N2CCOCC2)[nH]c2ccccc12 [CBK050076] | 109
O=C(Nc1ccc(F)cc1)c1[nH]c2ccccc2c1NS(=O)(=O)c1ccc(C(F)(F)F)cc1[N+](=O)[O-] [CBK050090] | 90.1
O=C(Nc1ccc(F)cc1)c1[nH]c2ccccc2c1NS(=O)(=O)c1cc(Cl)sc1Cl [CBK050094] | 95
Cc1noc(C)c1S(=O)(=O)Nc1c(C(=O)Nc2ccc(F)cc2)[nH]c2ccccc12 [CBK050099] | 119
CCN(CC)C(=O)c1[nH]c2ccccc2c1NS(=O)(=O)Cc1ccccc1 [CBK050107] | 108
CCN(CC)C(=O)c1[nH]c2ccccc2c1NS(=O)(=O)c1ccc(C(F)(F)F)cc1[N+](=O)[O-] [CBK050109] | 103
CCCc1ccc(S(=O)(=O)Nc2c(C(=O)N(CC)CC)[nH]c3ccccc23)cc1 [CBK050111] | 87.1
CCN(CC)C(=O)c1[nH]c2ccccc2c1NS(=O)(=O)c1c(C)noc1C [CBK050117] | 89.1
COc1ccc([C@@]23CC=C(N(Cc4ccccc4)C(=O)Nc4ccc(F)c(F)c4)C[C@@H]2N(C)CC3)cc1OC [CBK050179] | 94.9
COc1cccc([C@H]2CC[C@H](N(CCN(C)C)C(=O)Nc3cc(F)ccc3F)CC2)c1OC [CBK050184] | 113
O=C(CCS(=O)(=O)c1ccccc1)Nc1c(F)cc(F)cc1OC1CCNCC1 [CBK050226T] | 87.4
COc1cc(F)cc(OC2CCNCC2)c1NC(=O)Cc1cn(C)c2ccccc12 [CBK050245T] | 105
Cc1nn(C)c(N2CCNCC2)c1NC(=O)COc1ccccc1 [CBK050249T] | 103
Cc1nn(C)c(N2CCNCC2)c1NC(=O)Cc1cn(C)c2ccccc12 [CBK050254T] | 94.5
Cc1nn(C)c(N2CCNCC2)c1NC(=O)CN(C)C(=O)c1ccccc1 [CBK050255T] | 109
CSc1nc(NC(=O)CCCc2ccccc2)cc(N2CCNCC2)n1 [CBK050258T] | 111
COc1ccc(CCCC(=O)Nc2cc(N3CCNCC3)nc(SC)n2)cc1OC [CBK050261T] | 101
CSc1nc(NC(=O)Cc2c[nH]c3ccccc23)cc(N2CCNCC2)n1 [CBK050265T] | 84.4
CSc1nc(NC(=O)c2ccccc2)cc(N2CCNCC2)n1 [CBK050266T] | 93.6
O=C(Nc1c(F)cc(F)cc1OC1CCNCC1)c1ccnc2ccccc12 [CBK050277T] | 94.9
CCOc1ccsc1C(=O)Nc1c(OC)cc(F)cc1OC1CCNCC1 [CBK050292T] | 94.3
COc1cc(F)cc(OC2CCNCC2)c1NC(=O)c1cnccn1 [CBK050296T] | 90.3

Compound | viability at 28.5 h, 10 µM [%]
Cc1nn(C)c(N2CCNCC2)c1NC(=O)c1cccs1 [CBK050303T] | 91.9
COc1ccc(C(=O)Nc2c(C)nn(C)c2N2CCNCC2)cc1 [CBK050306T] | 94.5
Cc1nn(C)c(N2CCNCC2)c1NC(=O)c1cnccn1 [CBK050308T] | 86.3
CSc1nc(NC(=O)c2ccoc2)cc(N2CCNCC2)n1 [CBK050314T] | 88.9
CSc1nc(NC(=O)c2cccs2)cc(N2CCNCC2)n1 [CBK050315T] | 89.7
Cc1oc(-c2ccccc2)cc1C(=O)Nc1c(F)cc(F)cc1OC1CCNCC1 [CBK050326T] | 89.8
O=C(Nc1c(F)cc(F)cc1OC1CCNCC1)c1coc2c1C(=O)CCC2 [CBK050331T] | 93.9
CC1(C)CC(=O)C=C(C(=O)Nc2c(F)cc(F)cc2OC2CCNCC2)O1 [CBK050332T] | 110
COc1cc(F)cc(OC2CCNCC2)c1NC(=O)/C=C/c1cccnc1 [CBK050344T] | 103
COc1cc(F)cc(OC2CCNCC2)c1NC(=O)c1c(-c2ccccc2)noc1C [CBK050350T] | 91.8
Cc1nn(C)c(N2CCNCC2)c1NC(=O)c1cc(-c2ccccc2)oc1C [CBK050356T] | 92.8
CSc1nc(NC(=O)c2cc(-c3ccccc3)oc2C)cc(N2CCNCC2)n1 [CBK050364T] | 89.9
CC(=O)N1CCOc2ccccc21 [CBK050388] | 92.7
CCN(CC)C(=O)c1sccc1NS(=O)(=O)Cc1ccccc1 [CBK050393] | 106
CCOC(=O)c1c(NS(=O)(=O)c2cc(Cl)sc2Cl)sc2c1CCCC2 [CBK050397] | 96.1
O=C(Nc1ccc(F)cc1)c1ccc(NS(=O)(=O)Cc2ccccc2[N+](=O)[O-])cc1 [CBK050405] | 93
O=C(Nc1ccc(F)cc1)c1cccc(NS(=O)(=O)c2cc(Br)c(Cl)s2)c1 [CBK050410] | 93.4
O=S(=O)(Nc1cccc(-c2nnn[nH]2)c1)c1ccc(F)cc1 [CBK050470] | 88.5
Cn1nccc1NS(=O)(=O)c1ccc(F)cc1 [CBK050484] | 106
Cc1cnc(CNS(=O)(=O)c2ccc(F)cc2)cn1 [CBK050489] | 107
CN1CCN(S(=O)(=O)c2ccc(F)cc2)CC1 [CBK050491] | 88
O=S(=O)(Nc1nc2cc(Cl)ccc2o1)c1ccc(Oc2ccccc2)cc1 [CBK050499] | 97.8

Compound | viability at 28.5 h, 10 µM [%]
COc1ccc(S(=O)(=O)Nc2nc(C)c(C(=O)Nc3ccc(F)cc3)s2)cc1OC [CBK050538] | 103
Cc1nc(NS(=O)(=O)c2c(C)noc2C)sc1C(=O)N1CCOCC1 [CBK050574] | 98.4
CCN(CC)C(=O)c1sc2ncccc2c1NS(=O)(=O)c1cc(Cl)sc1Cl [CBK050615] | 92.2
CCN(CC)C(=O)c1sc2ncccc2c1NS(=O)(=O)c1c(C)noc1C [CBK050617] | 115
COc1ccc(S(=O)(=O)Nc2nccnc2-c2ccc(CN3C(=O)CCC3=O)cc2)cc1 [CBK050699] | 110
CC(=O)Nc1cccc(-c2nccnc2NS(=O)(=O)c2cccs2)c1 [CBK050760] | 92.7
CCCS(=O)(=O)Nc1nccnc1-c1cccs1 [CBK050763] | 89.4
O=S(=O)(Cc1ccccc1)Nc1nccnc1-c1cccs1 [CBK050766] | 91.3
CCCCc1ccc(S(=O)(=O)Nc2nccnc2-c2cccs2)cc1 [CBK050770] | 90.4
COc1ccc(S(=O)(=O)Nc2nccnc2-c2cccs2)cc1OC [CBK050774] | 104
CN(C)c1ccc(-c2nccnc2NS(=O)(=O)c2ccc3ccccc3c2)cc1 [CBK050794] | 93.4
CN(C)c1ccc(-c2nccnc2NS(=O)(=O)c2ccc(C(F)(F)F)cc2)cc1 [CBK050802] | 95.1
CN(C)c1ccc(-c2nccnc2NS(=O)(=O)c2cccs2)cc1 [CBK050804] | 90.5
O=C(O)c1nccnc1-c1ccc(COc2ccccc2)cc1 [CBK050806] | 90.2
O=C(O)c1nccnc1-c1ccc(COc2cccc3ccccc23)cc1 [CBK050810] | 95.4
O=C(O)c1nccnc1-c1ccc(Cn2ccc3ccccc32)cc1 [CBK050811] | 100
Cc1nc2cc(OCc3ccc(-c4nccnc4-c4nnn[nH]4)cc3)ccc2s1 [CBK050820] | 108
O=C(NCc1ccncc1)c1nccnc1-c1ccc(COc2ccccc2)cc1 [CBK050836] | 88.1
O=C(Nc1nccs1)c1nccnc1-c1ccc(COc2ccccc2)cc1 [CBK050839] | 95.6
O=C(NO)c1nccnc1-c1ccc(COc2ccccc2)cc1 [CBK050841] | 96.4
O=C(NCCOc1ccccc1)c1nccnc1-c1ccc(COc2ccc3c(c2)CCCC3)cc1 [CBK050852] | 91.2
CCCS(=O)(=O)Nc1nccnc1-c1ccc(Oc2ccccc2)cc1 [CBK050908] | 106

Compound | viability at 28.5 h, 10 µM [%]
CS(=O)(=O)Nc1nccnc1-c1ccc2c(c1)OCO2 [CBK050934] | 95.1
Cc1ccccc1S(=O)(=O)Nc1nccnc1-c1ccc2c(c1)OCO2 [CBK050941] | 122
O=S(=O)(Nc1nccnc1-c1ccc2c(c1)OCO2)c1cccc(Cl)c1 [CBK050951] | 92.4
CN1CCN(c2cc(-c3ccncc3)nc3ccccc23)CC1 [CBK050976B] | 89.1
O=S(=O)(Nc1ccc2nsnc2c1)c1ccc(F)cc1 [CBK051010] | 90.2
COc1ccc([C@@]23CC[C@@H](NC(=O)Nc4ccon4)C[C@@H]2N(C)CC3)cc1OC [CBK051069T] | 97
CCOC(=O)C1CCN(S(=O)(=O)c2ccccc2)CC1 [CBK051091] | 107
O=C(NCCc1c[nH]c2ccccc12)NC(=O)C1CCNCC1 [CBK051094] | 90.2
C=CCN1CCC(C(=O)NC(=O)NCC2COc3ccccc3O2)CC1 (centres unmarked) [CBK051099] | 84.2
CCOC(=O)C1CCN(S(=O)(=O)c2ccccc2C#N)CC1 [CBK051111] | 93.6
CCOC(=O)C1CCN(S(=O)(=O)c2c(C)noc2C)CC1 [CBK051112] | 96.9
Cc1ccc(S(=O)(=O)N2CCCCC2CO)cc1 (centres unmarked) [CBK051142] | 114
COc1ccc(CCN(C)C(=O)CCCc2cc3ccccc3[nH]2)cc1OC [CBK051152] | 93.7
COc1ccc([C@@]23CC[C@@H](NC(=O)Nc4ccc(-c5csnn5)cc4)C[C@@H]2N(C)CC3)cc1OC [CBK051163T] | 95.3
CC(C)c1nsc(NS(=O)(=O)Cc2ccccc2)n1 [CBK051188] | 112
CC(=O)Nc1nc(C)c(S(=O)(=O)Nc2nc(C(C)C)ns2)s1 [CBK051227] | 90.9
CC(C)(C)c1ccc(S(=O)(=O)N2CCNC(=O)C2)cc1 [CBK051238] | 88.9
CCOC(=O)C1CCN(S(=O)(=O)c2ccc(C(C)(C)C)cc2)CC1 [CBK051240] | 83.5
CC(C)c1nsc(NS(=O)(=O)c2cc(OCC(F)(F)F)ccc2OCC(F)(F)F)n1 [CBK051262] | 106
CC(C)c1nsc(NS(=O)(=O)c2cc(C(F)(F)F)cc(C(F)(F)F)c2)n1 [CBK051263] | 84.9
